“And” between values parts separate entries of the source, which are not always exact repeats. Equal entries are not always repeated. Inconclusive results and toxic doses are left out. Rule for the calls: active = survival T/C of 150% or more; inactive = T/C below 125% in these data.
System: P388 leukemia ip, CD2F1 mice, survival T/C
Assay: NCI In Vivo Anticancer Drug Screen. Data for tumor model P388 Leukemia (intraperitoneal) in CD2F1 (CDF1) mice
Conditions: endpoint: median survival time, higher = longer survival
Summary of the method: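 Mice carrying the transplanted tumor received test compound or vehicle. Survival was recorded in each group, and the value is the treated-group measurement divided by that of the vehicle-treated control group.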

[1] = dose: 6.25 mg/kg/injection, schedule: Q01DX009 (ip), vehicle: saline with Tween-80
[2] = dose: 12.5 mg/kg/injection, schedule: Q01DX009 (ip), vehicle: saline with Tween-80
[3] = dose: 25.0 mg/kg/injection, schedule: Q01DX009 (ip), vehicle: saline with Tween-80
[4] = dose: 6.25 mg/kg/injection, schedule: Q01DX009 (ip), vehicle: saline
[5] = dose: 12.5 mg/kg/injection, schedule: Q01DX009 (ip), vehicle: saline
[6] = dose: 25.0 mg/kg/injection, schedule: Q01DX009 (ip), vehicle: saline
[7] = dose: 100.0 mg/kg/injection, schedule: Q01DX009 (ip), vehicle: saline
[8] = dose: 200.0 mg/kg/injection, schedule: Q01DX009 (ip), vehicle: saline
[9] = dose: 200.0 mg/kg/injection, schedule: Q01DX009 (ip), vehicle: saline with Tween-80
[10] = dose: 50.0 mg/kg/injection, schedule: Q01DX005 (ip), vehicle: Klucel (hydroxypropylcellulose) (HPC)
[11] = dose: 100.0 mg/kg/injection, schedule: Q01DX005 (ip), vehicle: Klucel (hydroxypropylcellulose) (HPC)
[12] = dose: 60.0 mg/kg/injection, schedule: Q01DX005 (ip), vehicle: saline with Tween-80
[13] = dose: 120.0 mg/kg/injection, schedule: Q01DX005 (ip), vehicle: saline with Tween-80
[14] = dose: 240.0 mg/kg/injection, schedule: Q01DX005 (ip), vehicle: saline with Tween-80
[15] = dose: 200.0 mg/kg/injection, schedule: Q01DX005 (ip), vehicle: Klucel (hydroxypropylcellulose) (HPC)

Measured: T/C

O=C1C(Br)=CC(=NCl)C=C1Br
inactive: dose: 3.13 mg/kg/injection, schedule: Q01DX009 (ip), vehicle: Klucel (hydroxypropylcellulose) (HPC) 101 % of control and 88 % of control | dose: 6.25 mg/kg/injection, schedule: Q01DX009 (ip), vehicle: Klucel (hydroxypropylcellulose) (HPC) 101 % of control | [1] 93 % of control | dose: 12.5 mg/kg/injection, schedule: Q01DX009 (ip), vehicle: Klucel (hydroxypropylcellulose) (HPC) 105 % of control and 94 % of control | [2] 88 % of control | [3] 90 % of control

COc1cc(OC)c(C2c3cc4c(cc3OC(C)(O)C2C)OCO4)c(OC)c1 (configuration not stated)
inactive: dose: 100.0 mg/kg/injection, schedule: Q04DX002 (ip), vehicle: saline with Tween-80 94 % of control | dose: 200.0 mg/kg/injection, schedule: Q04DX002 (ip), vehicle: saline with Tween-80 89 % of control | dose: 400.0 mg/kg/injection, schedule: Q04DX002 (ip), vehicle: saline with Tween-80 102 % of control

COc1cccc2c1C(=O)c1c(O)c3c(c(O)c1C2=O)CC(O)(C(C)=O)CC3OC1CC(NCC2(O)OC(C(=O)NCCCN(C)C)C(O)C2O)C(O)C(C)O1 (configuration not stated)
inactive: dose: 2.5 mg/kg/injection, schedule: Q04DX003 (ip), vehicle: water 101 % of control | dose: 5.0 mg/kg/injection, schedule: Q04DX003 (ip), vehicle: water 109 % of control | dose: 10.0 mg/kg/injection, schedule: Q04DX003 (ip), vehicle: water 108 % of control | dose: 20.0 mg/kg/injection, schedule: Q04DX003 (ip), vehicle: water 109 % of control | dose: 40.0 mg/kg/injection, schedule: Q04DX003 (ip), vehicle: water 109 % of control

CCC(=O)NC(Cc1cccs1)C(=O)O (configuration not stated)
inactive: [4] 107 % of control | [5] 105 % of control | [6] 93 % of control | [7] 88 % of control | [8] 91 % of control

O=CC1=CSC(=C2SC=CS2)S1
inactive: dose: 15.0 mg/kg/injection, schedule: Q01DX005 (ip), vehicle: Klucel + Tween-80 95 % of control | dose: 30.0 mg/kg/injection, schedule: Q01DX005 (ip), vehicle: Klucel + Tween-80 87 % of control | dose: 60.0 mg/kg/injection, schedule: Q01DX005 (ip), vehicle: Klucel (hydroxypropylcellulose) (HPC) 101 % of control | dose: 60.0 mg/kg/injection, schedule: Q01DX005 (ip), vehicle: Klucel + Tween-80 106 % of control

CCC(=O)Oc1ccc(C2N(Cc3ccc(N(C)C)cc3)CCCN2Cc2ccc(N(C)C)cc2)cc1
inactive: dose: 50.0 mg/kg/injection, schedule: Q01DX009 (ip), vehicle: saline with Tween-80 90 % of control | [9] 90 % of control

CCN1C(C)N1P(=S)(OC1CC(C)(C)N(O)C(C)(C)C1)OC1CC(C)(C)N(O)C(C)(C)C1 (configuration not stated)
inactive: [10] 93 % of control | [11] 86 % of control

CCCCCCCCCCCC[N+]1([O-])CCCCC1
inactive: [5] 89 % of control | [6] 91 % of control

O=[N+]([O-])c1ccc(Sc2ncnc3c2ncn3C2OC(CO)C(O)C2O)c2nonc12 (configuration not stated)
inactive: dose: 12.5 mg/kg/injection, schedule: Q01DX009 (ip), vehicle: suspension in saline 119 % of control | dose: 50.0 mg/kg/injection, schedule: Q01DX009 (ip), vehicle: suspension in saline 103 % of control and 122 % of control

Cc1ccc(C)c(NC(=O)CCC(=O)C(C)C(=O)c2ccccc2)c1 (configuration not stated)
inactive: [12] 111 % of control | [13] 102 % of control | [14] 108 % of control

CC(C)(C)C(=O)NC(OC(NC(=O)C(C)(C)C)C(=O)C(C)(C)C)C(=O)C(C)(C)C (configuration not stated)
inactive: [12] 97 % of control | [13] 99 % of control | [14] 105 % of control

CC(=N)c1ccc(C)cc1
inactive: [1] 90 % of control | dose: 6.25 mg/kg/injection, schedule: Q04DX003 (ip), vehicle: saline with Tween-80 100 % of control | [2] 90 % of control | dose: 12.5 mg/kg/injection, schedule: Q04DX003 (ip), vehicle: saline with Tween-80 95 % of control | [3] 104 % of control | dose: 25.0 mg/kg/injection, schedule: Q04DX003 (ip), vehicle: saline with Tween-80 100 % of control

CCOC(=O)CC(COC)C(Br)(C(=O)OCC)C(=O)OCC (configuration not stated)
inactive: dose: 1.56 mg/kg/injection, schedule: Q01DX009 (ip), vehicle: water 104 % of control | dose: 3.13 mg/kg/injection, schedule: Q01DX009 (ip), vehicle: water 111 % of control | dose: 6.25 mg/kg/injection, schedule: Q01DX009 (ip), vehicle: water 107 % of control | dose: 12.5 mg/kg/injection, schedule: Q01DX009 (ip), vehicle: water 114 % of control | dose: 25.0 mg/kg/injection, schedule: Q01DX009 (ip), vehicle: water 113 % of control

COc1cc(OC)c2c(c1)C(=O)[C@]1(C)C3(C)OC(=O)C(c4ccccc43)[C@]21C (some centres not stated)
inactive: dose: 100.0 mg/kg/injection, schedule: Q01DX001 (ip), vehicle: Klucel (hydroxypropylcellulose) (HPC) 102 % of control | dose: 200.0 mg/kg/injection, schedule: Q01DX001 (ip), vehicle: Klucel (hydroxypropylcellulose) (HPC) 100 % of control | dose: 400.0 mg/kg/injection, schedule: Q01DX001 (ip), vehicle: Klucel (hydroxypropylcellulose) (HPC) 105 % of control

Cc1c(-c2ccccc2)ccnc1/C=N/NC(N)=S
inactive: [4] 101 % of control | [5] 120 % of control | [6] 120 % of control | [7] 103 % of control

COc1ccc2c(c1)C(=O)/C(=N\O)C2
inactive: [10] 92 % of control | [11] 101 % of control | [15] 92 % of control

C=Cc1ccc(NC(=O)CC2SC(=O)NC2=O)cc1 (configuration not stated)
inactive: dose: 50.0 mg/kg/injection, schedule: Q01DX005 (ip), vehicle: saline with Tween-80 103 % of control | dose: 100.0 mg/kg/injection, schedule: Q01DX005 (ip), vehicle: saline with Tween-80 97 % of control | dose: 200.0 mg/kg/injection, schedule: Q01DX005 (ip), vehicle: saline with Tween-80 103 % of control

[CH3][Sn]([CH3])([S]P(=S)(c1ccccc1)c1ccccc1)[S]P(=S)(c1ccccc1)c1ccccc1
inactive: [10] 118 % of control | [11] 117 % of control

CC1(C)CCCC(C)(C)N1CC#CCON1C(=O)c2ccccc2C1=O
inactive: dose: 100.0 mg/kg/injection, schedule: Q04DX002 (ip), vehicle: Klucel (hydroxypropylcellulose) (HPC) 102 % of control | dose: 200.0 mg/kg/injection, schedule: Q04DX002 (ip), vehicle: Klucel (hydroxypropylcellulose) (HPC) 96 % of control | dose: 400.0 mg/kg/injection, schedule: Q04DX002 (ip), vehicle: Klucel (hydroxypropylcellulose) (HPC) 105 % of control

Cc1cc(C(=O)N/N=C/c2ccccc2O)c2cc(Br)ccc2n1
inactive: [2] 88 % of control | [3] 92 % of control | dose: 100.0 mg/kg/injection, schedule: Q01DX009 (ip), vehicle: saline with Tween-80 98 % of control | [9] 97 % of control

CC(C)c1nnc(NC(=O)CSC(=S)N2CCOCC2)s1
inactive: [12] 106 % of control | [13] 98 % of control | [14] 97 % of control

CSc1ncc(/C(C)=N\N=C(N)N)c(C)n1
inactive: dose: 15.0 mg/kg/injection, schedule: Q01DX005 (ip), vehicle: saline 103 % of control and 97 % of control | dose: 30.0 mg/kg/injection, schedule: Q01DX005 (ip), vehicle: saline 93 % of control and 98 % of control | dose: 60.0 mg/kg/injection, schedule: Q01DX005 (ip), vehicle: saline 94 % of control and 97 % of control | dose: 120.0 mg/kg/injection, schedule: Q01DX005 (ip), vehicle: saline 99 % of control

O=c1oc2c(Cl)cc(Cl)cc2cc1-c1nc2ccccc2[nH]1
inactive: dose: 25.0 mg/kg/injection, schedule: Q01DX005 (ip), vehicle: Klucel (hydroxypropylcellulose) (HPC) 92 % of control | [10] 92 % of control | [11] 92 % of control | [15] 92 % of control

O=C1c2ccccc2C(=O)c2c1ccc1c2[nH]c2cc(Cl)c(Cl)cc21
inactive: dose: 50.0 mg/kg/injection, schedule: Q01DX005 (ip), vehicle: Klucel + Tween-80 98 % of control | dose: 100.0 mg/kg/injection, schedule: Q01DX005 (ip), vehicle: Klucel + Tween-80 91 % of control | dose: 200.0 mg/kg/injection, schedule: Q01DX005 (ip), vehicle: Klucel + Tween-80 98 % of control

NS(=O)(=O)c1cccc(NC(=S)Nc2ccccc2)c1
inactive: [4] 103 % of control (2×) and 108 % of control | [5] 101 % of control and 106 % of control | [6] 99 % of control and 109 % of control and 94 % of control | [7] 99 % of control and 92 % of control | [8] 100 % of control and 110 % of control

Cl[C](Cl)(Cl)[Hg][C](Cl)(Cl)Cl
inactive: dose: 1.56 mg/kg/injection, schedule: Q01DX009 (ip), vehicle: saline with Tween-80 95 % of control | dose: 3.12 mg/kg/injection, schedule: Q01DX009 (ip), vehicle: saline with Tween-80 90 % of control and 96 % of control | [1] 87 % of control

— PubChem BioAssay AID330 (DTP/NCI, 2004)
